Assay results: patent US20110251134A1, “COMBINATION OF (A) A DNA TOPOSOMERASE INHIBITOR AND (B) AN IAP INHIBITOR” (priority 2004, published 2011)
Each block holds one molecule with its values, some of them ahead of it.

What was measured:
melanoma model = experiment: growth in a melanoma model; type: cell-based
caspase-3 = caspase-3 activity in a breast tumor model; type: cell-based
Procedure: In a breast tumor model, both compound C and topotecan (1 nM) individually increase caspase-3 activity less than two fold over the control. A nearly twelve fold increase in caspase-3 activity is seen with the same amount of compound C at a concentration of about 1 nM topotecan.

SMILES: CC[C@@]1(O)C(=O)OCc2c1cc1n(c2=O)Cc2cc3ccccc3nc2-1 [camptothecin, Camptothecin]
growth (melanoma model; camptothecin 5 nM alone): about 50 % of control

increase in caspase-3 activity over the control (caspase-3; compound C alone): less than two
SMILES: CN[C@@H](C)C(=O)N[C@H](C(=O)N1C[C@@H](NC(=O)CC2CCCCC2)C[C@H]1C(=O)NCCc1ccccc1)C(C)C [compound C]

SMILES: CN[C@@H](C)C(=O)N[C@H](C(=O)N1CCC[C@H]1C(=O)NC(Cc1ccccc1)Cc1ccccc1)C(C)C [compound D]
growth (melanoma model; compound D 250 nM alone): about 90 % of control

increase in caspase-3 activity over the control (caspase-3; topotecan 1 nM alone): less than two
SMILES: CC[C@@]1(O)C(=O)OCc2c1cc1n(c2=O)Cc2cc3c(CN(C)C)c(O)ccc3nc2-1 [topotecan]
